Results from US12162874B2, “Peptidomimetic-based antibody surrogate for HER2” (University of South Florida, priority 2021, dated 2024).
Where “and” joins values, the source holds several entries; their conditions need not be identical. Identical values can stand only once. Entries after “also recorded” stand apart in the source; their conditions may differ.

Key:
HER2 ECD = target: T1, HER2 ECD (Homo sapiens, UniProt P04626); experiment: Surface plasmon resonance (SPR) binding to HER2
T1 construct: Fc (human IgG Fc); purchased Creative BioMart

P-HER2 [1] = experiment: Western blot of HER2 phosphorylation in SKBR3 cells; format: cell-based, human; conditions: for inhibition of HER2 phosphorylation (in words): SKBR3 cell lysates, western blot; for expression of P-HER2: 10 μM
Procedure: (§1) SKBR3 cells were seeded into a 6-well plate at a concentration of 1×10^5 cells/well. After 12 h attachment at 37° C. and 5% CO2, the cells were starved overnight in serum-reduced McCoy's 5A Medium followed by treatment with different concentration of M-3-6 or M-3-6-D for 4 h, and then washed with ice-cold PBS and resuspended in ice-cold RIPA buffer supplemented with Halt Protease and Phosphatase Inhibitor Cocktail. Subsequently, the cells were incubated on ice for 10 min and centrifuged at 14,000×g at 4° C. for 10 min. An equal amount of protein was run on 4-12% Bis-Tris gels, transferred to polyvinylidene difluoride membranes (Millipore) and western blotted with anti-phosphorylated HER2, anti-phosphorylated AKT, anti-phosphorylated ERK and GAPDH. The experiments were conducted in triplicates and repeated for three times.

P-ERK = experiment: Western blot of ERK phosphorylation in SKBR3 cells; format: cell-based; conditions: for phosphorylation of ERK (in words): SKBR3 cell lysates, western blot
Procedure: as §1

SKBR3 cells = experiment: Inhibition of EGF-induced cell proliferation (CCK-8); format: cell-based; conditions: SKBR3, EGF 100 ng/mL
Procedure: SKBR3 cells were cultured in McCoy's 5A Medium (Gibco) medium containing 10% fetal bovine serum and 1% penicillin/streptomycin in an atmosphere of 5% CO2 at 37° C.
SKBR3 cells in good condition were seeded into a 96-well plate at a concentration of 1×10^3 cells/well in 100 μL of complete growth medium. After 24 hours of attachment at 37° C. and 5% CO2, medium was replaced by fresh serum reduced McCoy's 5A Medium and cell were serum-starved overnight. Then serum-reduced EGF (100 ng/mL) McCoy's 5A Medium in the presence of different concentration of M-3-6 and M-3-6-D was added to the cells in hexaplicate. After 72 h, the CCK-8 reagents were added according to the manufacturer's recommendations.

SKBR3 tumor xenograft = experiment: Antitumor study in SKBR3 xenograft nude mice, tumor volume; format: in vivo, mouse; conditions: for tumor volume after the last drug injection on day 12: after end of dosing, until day 24
Procedure: Male BALB/c nude mice, 4-6 weeks old, were provided by the Shanghai Bikai Experimental Animal Center, with the license number SOXK (Hu) 2008-0016, and maintained under specific-pathogen-free conditions.
SKBR3 cells were harvested, resuspended in PBS, and injected subcutaneously into 4-6 weeks old Male BALB/c nude mice. […] Mice were injected through the intraperitoneal every two days for seven injections. 12 days after injection, the mice in each group were killed, and the tumors were removed for examination. The tumor volumes were determined by measuring length (1) and width (w) and calculating volume (V=lw^2/2).

P-HER2 [2] = experiment: Immunohistochemical staining of SKBR3 tumor sections; format: in vivo, mouse; conditions: tumors resected after sacrifice
Procedure: For the immunohistochemical analysis, the hydrated paraffin section was incubated in a blocking solution (10% donkey serum +5% nonfat dry milk +4% BSA +0.1% Triton X-100) for 10 min, and then incubated at 4° C. overnight with anti-P-HER2, P-AKT, P-ERK. After washing with PBS, the sections were incubated with diluted (1:200) biotinylated secondary antibody for 30 min. Subsequently, the sections were washed again in PBS and incubated for 30 min with the preformed avidin-horseradish peroxidase macromolecular complex. Development of peroxidase reaction was achieved by incubation in 0.01% 3, 3-diaminobenzidine tetrahydrochloride (DAB) in PBS containing 0.01% hydrogen peroxide for approximately 5 min at room temperature. Sections were then washed thoroughly in tap water, counterstained in haematoxylin, dehydrated in absolute alcohol, cleared in xylene and mounted in synthetic resin for microscopic examination.

pronase = conditions: 0.1 mg/mL pronase, 100 mM ammonium bicarbonate buffer, 37° C., 24 h
Excerpt: Then, the reaction mixtures were concentrated in a speed vacuum to remove water and ammonium bicarbonate. The resulting residues were re-dissolved in H2O/MeCN and analyzed on a Waters analytical HPLC system.

[3] = i.p. every two days for two weeks
Procedure: SKBR3 cells were harvested, resuspended in PBS, and injected subcutaneously into 4-6 weeks old Male BALB/c nude mice. […] Mice were injected through the intraperitoneal every two days for seven injections.

HER2 = target: T2, HER2 (Homo sapiens, UniProt P04626); experiment: Fluorescence polarization (FP) binding assay; conditions: 50 nM FITC labeled AApeptide, HER2 0 to 2 μM in PBS
T2 construct: Fc (human IgG Fc); purchased Creative BioMart
Procedure: The FP experiment was performed by incubating 50 nM FITC labeled AApeptides with HER2 (0 to 2 μM) in PBS. Dissociation constants (Kd) was determined by plotting the fluorescence anisotropy values as a function of protein concentration, and the plots were fitted to the following equation. The Lst is the concentration of the AApeptides and the x stands for the concentration of the protein. The experiments were conducted in triplicates and repeated for three times. y=FPmin+(FPmax−FPmin)*(KD+Lst+x-sqrt((KD+Lst+x)^2−4*Lst*x))/(2*Lst)

EGFR = EGFR (Homo sapiens, UniProt P00533); experiment: Surface plasmon resonance (SPR) binding to EGFR (selectivity)
Procedure: Next, the binding affinity of both M-3-6 and M-3-6-D to HER2 ECD in vitro were measured by surface plasmon resonance (SPR) assay (FIG. 10 in supporting information). […]. In addition, EGFR, known as ERBB1, another member of the human epidermal growth factor receptor family was chosen to test the selectivity of M-3-6. […].
Binding kinetics of M-3-6 or M-3-6-D to HER2 was measured by surface plasmon resonance (OpenSPR, Nicoyalife). After HER2 was covalently coupled to the carboxyl sensor chips (Nicoyalife), M-3-6 or M-3-6-D in PBS running buffer (pH 7.4) was slowly flowed over the sensor chip for 5 min to allow interaction. The running buffer was then allowed to flow for 10 min to collect the dissociation data. After subtracting the background, the signal response vs. time curve was obtained, binding kinetic parameters were obtained by fitting the curve to a one-to-one binding model using Trace-Drawer (Nicoyalife) software.

P-AKT = experiment: Western blot of AKT phosphorylation in SKBR3 cells; format: cell-based
Procedure: as §1

[4] = 8 mg/kg i.p. every two days for two weeks

T2 sequence (P04626 23-652): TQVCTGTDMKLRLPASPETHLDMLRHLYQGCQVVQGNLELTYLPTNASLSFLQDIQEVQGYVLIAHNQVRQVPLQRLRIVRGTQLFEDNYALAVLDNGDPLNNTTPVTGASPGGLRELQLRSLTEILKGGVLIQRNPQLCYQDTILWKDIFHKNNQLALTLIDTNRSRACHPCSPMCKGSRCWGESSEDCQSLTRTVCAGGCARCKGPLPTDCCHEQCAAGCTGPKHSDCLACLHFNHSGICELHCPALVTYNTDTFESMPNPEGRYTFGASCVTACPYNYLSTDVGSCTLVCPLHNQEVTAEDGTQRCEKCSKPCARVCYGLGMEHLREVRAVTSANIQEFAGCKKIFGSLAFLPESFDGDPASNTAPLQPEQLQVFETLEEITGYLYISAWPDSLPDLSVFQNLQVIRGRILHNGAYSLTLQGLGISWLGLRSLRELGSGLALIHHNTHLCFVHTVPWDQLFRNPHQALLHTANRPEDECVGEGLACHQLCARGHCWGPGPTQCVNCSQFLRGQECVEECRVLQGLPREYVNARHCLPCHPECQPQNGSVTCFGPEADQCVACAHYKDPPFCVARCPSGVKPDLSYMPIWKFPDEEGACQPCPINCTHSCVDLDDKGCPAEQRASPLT
T1 sequence (P04626 23-652): as above
Chain of EGFR (P00533 25-1210): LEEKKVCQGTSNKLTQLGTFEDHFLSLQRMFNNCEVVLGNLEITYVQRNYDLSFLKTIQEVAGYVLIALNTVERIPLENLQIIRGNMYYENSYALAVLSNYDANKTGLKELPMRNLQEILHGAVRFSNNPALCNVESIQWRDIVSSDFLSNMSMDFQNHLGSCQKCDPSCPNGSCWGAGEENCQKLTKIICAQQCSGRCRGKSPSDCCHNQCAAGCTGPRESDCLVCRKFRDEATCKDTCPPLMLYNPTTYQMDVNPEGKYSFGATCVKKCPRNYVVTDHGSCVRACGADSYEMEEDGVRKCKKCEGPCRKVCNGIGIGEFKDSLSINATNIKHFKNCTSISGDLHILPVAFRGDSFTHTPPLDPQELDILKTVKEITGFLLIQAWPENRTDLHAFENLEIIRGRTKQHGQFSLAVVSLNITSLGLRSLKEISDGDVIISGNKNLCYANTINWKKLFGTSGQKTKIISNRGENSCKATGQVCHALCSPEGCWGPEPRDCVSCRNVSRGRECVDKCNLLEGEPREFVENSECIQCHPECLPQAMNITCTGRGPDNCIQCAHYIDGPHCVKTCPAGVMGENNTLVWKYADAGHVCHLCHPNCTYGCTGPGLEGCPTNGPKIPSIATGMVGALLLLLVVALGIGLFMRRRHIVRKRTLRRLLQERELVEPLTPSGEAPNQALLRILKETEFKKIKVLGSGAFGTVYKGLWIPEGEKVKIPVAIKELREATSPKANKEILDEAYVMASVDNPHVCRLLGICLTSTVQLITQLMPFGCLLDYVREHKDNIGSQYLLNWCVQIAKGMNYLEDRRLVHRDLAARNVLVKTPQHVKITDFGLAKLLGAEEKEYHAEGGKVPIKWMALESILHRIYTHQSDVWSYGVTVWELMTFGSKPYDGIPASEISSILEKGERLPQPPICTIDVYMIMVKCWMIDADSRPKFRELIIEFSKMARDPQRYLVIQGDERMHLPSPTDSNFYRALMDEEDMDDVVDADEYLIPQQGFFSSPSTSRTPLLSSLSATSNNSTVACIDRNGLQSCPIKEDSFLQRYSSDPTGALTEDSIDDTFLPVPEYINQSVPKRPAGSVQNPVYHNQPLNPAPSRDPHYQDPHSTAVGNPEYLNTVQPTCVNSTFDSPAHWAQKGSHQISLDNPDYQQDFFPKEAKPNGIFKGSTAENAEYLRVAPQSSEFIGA

SMILES | improvement of binding to HER2 compared with monomer M-3-6 (HER2 ECD) [fold] | inhibition of HER2 phosphorylation (in words) (P-HER2 [1]) | expression of P-HER2 (P-HER2 [1]; SKBR3 cells, 4 h) | phosphorylation of ERK (in words) (P-ERK) | inhibition of EGF-induced proliferation (in words) (SKBR3 cells) | tumor volume / antitumor effect (SKBR3 tumor xenograft; [4]) | tumor volume after the last drug injection on day 12 (SKBR3 tumor xenograft) | phosphorylation level of HER2 in tumor sections (P-HER2 [2]) | degradation by pronase monitored by HPLC (pronase) | effect on body weight gain [3] | Kd (HER2) | weaker binding to EGFR than to HER2 (EGFR) [fold] | IC50 (P-HER2 [1]; SKBR3 cells, 0-30 μM, 4 h, read-out: IC50 inhibition of HER2 phosphorylation) [µM] | phosphorylation of AKT (in words) (P-AKT; SKBR3 cell lysates, western blot) | IC50 (P-AKT; SKBR3 cells, 4 h) [µM] | IC50 (P-ERK; SKBR3 cells, 4 h) [µM] | IC50 (SKBR3 cells; serum-reduced, 72 h, read-out: IC50 antiproliferative activity on EGF-stimulated cells) [µM] | tumor volume / antitumor effect (SKBR3 tumor xenograft; 32 mg/kg i.p. every two days for two weeks)
COc1cc(CC(=O)N2CC(=O)N[C@@H](Cc3ccccc3)CN(C(=O)Cc3ccc4ccccc4c3)CC(=O)N[C@@H](CCCCN)CN(C(=O)Cc3ccc4c(c3)OCO4)CC(=O)N[C@@H](CCCCN)CN(CC(=O)N[C@@H](CCCCNC(=O)COCCOCCNC(=O)Cn3cc(COc4cc(OCc5cn(CC(=O)NCCOCCOCC(=O)NCCCC[C@H](NC(=O)CN6C[C@H](CCCCN)NC(=O)CN(C(=O)Cc7ccc8c(c7)OCO8)C[C@H](CCCCN)NC(=O)CN(C(=O)Cc7ccc8ccccc8c7)C[C@H](Cc7ccccc7)NC(=O)CN(C(=O)Cc7cc(OC)cc(OC)c7)C[C@H](CC(C)C)NC(=O)c7ccc(cc7)CSCCC6=O)C(N)=O)nn5)cc(C(=O)NCCNC(=O)OC(C)(C)C)c4)nn3)C(N)=O)C(=O)CCSCc3ccc(cc3)C(=O)N[C@@H](CC(C)C)C2)cc(OC)c1 [M-3-6-D] | ~7 | even stronger inhibition of phosphorylation than M-3-6; also recorded: much more effective phosphorylation inhibition compared with M-3-6 | almost complete blocked | more pronounced effect on the suppression of P-ERK compared with P-AKT | inhibited EGF-induced proliferation significantly in a dose-dependent manner | significantly inhibit the tumor growth; also recorded: significant antitumor effect | significant reduction in tumor volume was still observed | comparable efficiency with trastuzumab | no detectable degradation | ignorable effect on the body weight gain |  |  |  |  |  |  |  | 
COc1cc(CC(=O)N2CC(=O)N[C@@H](Cc3ccccc3)CN(C(=O)Cc3ccc4ccccc4c3)CC(=O)N[C@@H](CCCCN)CN(C(=O)Cc3ccc4c(c3)OCO4)CC(=O)N[C@@H](CCCCN)CN(CC(=O)NCCC(=O)NC(CCCCNC(=S)Nc3ccc(-c4c5ccc(=O)cc-5oc5cc(O)ccc45)c(C(=O)O)c3)C(N)=O)C(=O)CCSCc3ccc(cc3)C(=O)N[C@@H](CC(C)C)C2)cc(OC)c1 (some centres unmarked) [M-3-6-F] |  |  |  |  |  |  |  |  |  |  | 0.28 µM and 0.278 µM |  |  |  |  |  |  | 
COc1cc(CC(=O)N2CC(=O)N[C@@H](Cc3ccccc3)CN(C(=O)Cc3ccc4ccccc4c3)CC(=O)N[C@@H](CCCCN)CN(C(=O)Cc3ccc4c(c3)OCO4)CC(=O)N[C@@H](CCCCN)CN(CC(N)=O)C(=O)CCSCc3ccc(cc3)C(=O)N[C@@H](CC(C)C)C2)cc(OC)c1 [M-3-6] |  | dose-dependent inhibition of HER2 receptor phosphorylation | relatively high | reduction in the phosphorylation of AKT and ERK | inhibited EGF-induced proliferation significantly in a dose-dependent manner | no significant reduction in tumor volume | significant tumor growth | modest inhibitory effect |  | ignorable effect on the body weight gain |  | 10 | 12.9 | reduction in the phosphorylation of AKT and ERK | 16.9 | 10.6 | 17.9 | much more improved antitumor effect
